Where two headings read alike, the source gives them in different places.
How the values were obtained:
Test in all cases: ADP-[…]Glc synthesis from […]Glc1P, modified Hill fit
[1] = tested on: T1, OtaS; type: biochemical, Ostreococcus tauri; details: allosteric activator; 1 mM ATP, 1 mM Glc1P, 7 mM MgCl2, pH 8.0, 37 °C; read-out: A0.5
T1 construct: recombinant small subunit homotetramer from E. coli AC70R1-504, purified; plasmid pMAB5 or pMAB6

[2] = tested on: T2, OtaS/OtaL; type: biochemical, Ostreococcus tauri; details: allosteric activator; 1 mM ATP, 1 mM Glc1P, 7 mM MgCl2, pH 8.0, 37 °C; read-out: A0.5
T2 construct: recombinant S2L2 heterotetramer co-expressed in E. coli AC70R1-504, purified

[3] = target: T3, ADP-Glc PPase from Anabaena (Nostoc sp. PCC 7120 = FACHB-418, UniProt P30521); type: biochemical; details: read-out: A0.5
T3 construct: gene glgC; recombinant homotetramer from E. coli AC70R1-504, purified
T3 sequence (P30521 1-429): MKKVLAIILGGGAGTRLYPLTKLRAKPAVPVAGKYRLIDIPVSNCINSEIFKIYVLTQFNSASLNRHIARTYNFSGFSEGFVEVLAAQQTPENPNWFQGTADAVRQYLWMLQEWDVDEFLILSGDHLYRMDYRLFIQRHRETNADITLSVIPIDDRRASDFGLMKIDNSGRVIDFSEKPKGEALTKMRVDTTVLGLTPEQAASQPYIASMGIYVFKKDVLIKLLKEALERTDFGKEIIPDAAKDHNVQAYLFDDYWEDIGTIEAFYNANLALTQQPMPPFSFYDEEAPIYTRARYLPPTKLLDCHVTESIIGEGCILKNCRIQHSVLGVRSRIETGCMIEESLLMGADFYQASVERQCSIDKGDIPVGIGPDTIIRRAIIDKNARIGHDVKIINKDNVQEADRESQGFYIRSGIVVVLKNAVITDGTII

[4] = tested on: T2, OtaS/OtaL; type: biochemical, Ostreococcus tauri; details: allosteric activator; 1 mM ATP, 1 mM Glc1P, 7 mM MgCl2, pH 8.0, 37 °C; non-catalytic OtaL with wild-type OtaS; read-out: A0.5
[5] = tested on: T2, OtaS/OtaL; type: biochemical, Ostreococcus tauri; details: allosteric activator; 1 mM ATP, 1 mM Glc1P, 7 mM MgCl2, pH 8.0, 37 °C; non-catalytic OtaS with wild-type OtaL; read-out: A0.5
[6] = allosteric activator, 1 mM ATP, 1 mM Glc1P, 7 mM MgCl2, pH 8.0, 37 °C

Structure (SMILES) | EC50 [1] [µM] | EC50 [2] [µM] | EC50 [3, 6] [µM] | EC50 [4] [µM] | EC50 [5] [µM] | EC50 [3] [µM]
O=P(O)(O)OC[C@H]1OC(O)[C@H](O)[C@@H](O)[C@@H]1O (stereo partly shown) [Glc6P] | 10000 | 75000 | 400 |  |  | 
O=P(O)(O)OC[C@H]1OC(O)(CO)[C@@H](O)[C@@H]1O (stereo partly shown) [Fru6P] | 1900 | 15000 | 1600 |  |  | 
O=P(O)(O)OC[C@H]1OC(O)(COP(=O)(O)O)[C@@H](O)[C@@H]1O (stereo partly shown) [FBP] | 1100 | 1100 | 300 | 1500 | 8200 | 
O=C(O)[C@H](O)COP(=O)(O)O [3-PGA] | 1200 | 540 |  | 67 | 3 | 75

Reference: paper PMC3585822, “The ancestral activation promiscuity of ADP-glucose pyrophosphorylases from oxygenic photosynthetic organisms” (BMC Evolutionary Biology, 2013)
